Results reported in ChEMBL document CHEMBL1138999, “Synthesis and in vitro evaluation of novel derivatives of diphenylsulfide as serotonin transporter ligands” (Bioorg Med Chem Lett, 2006).

How the values were obtained:
[1] = target: T1, Sodium-dependent serotonin transporter (Homo sapiens, UniProt P31645); assay: Inhibitory activity against SERT
[2] = target: Sodium-dependent dopamine transporter (Homo sapiens, UniProt Q01959); assay: Inhibitory activity against DAT
[3] = target: Sodium-dependent noradrenaline transporter (Homo sapiens, UniProt P23975); assay: Inhibitory activity against NET
Sodium-dependent noradrenaline transporter, sequence (P23975 whole entry): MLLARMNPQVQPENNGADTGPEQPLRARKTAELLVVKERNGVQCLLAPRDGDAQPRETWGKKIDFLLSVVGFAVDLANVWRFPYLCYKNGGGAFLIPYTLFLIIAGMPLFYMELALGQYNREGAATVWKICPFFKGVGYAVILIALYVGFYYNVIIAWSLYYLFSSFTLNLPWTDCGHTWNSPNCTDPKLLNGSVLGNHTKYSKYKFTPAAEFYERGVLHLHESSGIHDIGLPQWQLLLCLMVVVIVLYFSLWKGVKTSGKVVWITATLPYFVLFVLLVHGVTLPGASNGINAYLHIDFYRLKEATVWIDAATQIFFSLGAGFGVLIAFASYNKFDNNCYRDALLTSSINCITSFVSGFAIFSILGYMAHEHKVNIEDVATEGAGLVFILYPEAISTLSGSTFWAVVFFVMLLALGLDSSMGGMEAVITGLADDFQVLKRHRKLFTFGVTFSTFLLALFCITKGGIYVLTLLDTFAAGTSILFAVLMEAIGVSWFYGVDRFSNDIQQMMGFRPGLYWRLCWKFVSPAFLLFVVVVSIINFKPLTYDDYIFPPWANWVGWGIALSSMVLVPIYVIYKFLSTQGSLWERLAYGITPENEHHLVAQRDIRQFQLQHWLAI

[4] = target: T1, Sodium-dependent serotonin transporter; assay: Displacement of [3H]paroxetine from SERT

T1 sequence (P31645 whole entry): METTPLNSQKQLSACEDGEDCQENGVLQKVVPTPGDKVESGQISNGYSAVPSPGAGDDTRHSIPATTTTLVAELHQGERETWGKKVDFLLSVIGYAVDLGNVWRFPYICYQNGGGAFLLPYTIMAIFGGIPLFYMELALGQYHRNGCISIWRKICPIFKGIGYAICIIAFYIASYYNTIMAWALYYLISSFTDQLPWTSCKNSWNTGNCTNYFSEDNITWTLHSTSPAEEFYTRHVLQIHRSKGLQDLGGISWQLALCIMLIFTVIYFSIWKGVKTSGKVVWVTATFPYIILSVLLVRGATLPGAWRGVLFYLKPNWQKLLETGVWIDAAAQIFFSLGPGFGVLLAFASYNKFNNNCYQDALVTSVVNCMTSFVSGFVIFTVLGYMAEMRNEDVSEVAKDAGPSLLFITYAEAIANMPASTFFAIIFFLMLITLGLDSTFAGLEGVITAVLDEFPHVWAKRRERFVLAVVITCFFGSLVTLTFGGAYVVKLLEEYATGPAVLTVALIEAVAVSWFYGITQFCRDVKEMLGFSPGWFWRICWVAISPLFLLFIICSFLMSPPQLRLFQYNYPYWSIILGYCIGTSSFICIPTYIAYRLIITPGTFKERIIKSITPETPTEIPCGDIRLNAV
Sodium-dependent dopamine transporter, sequence (Q01959 whole entry): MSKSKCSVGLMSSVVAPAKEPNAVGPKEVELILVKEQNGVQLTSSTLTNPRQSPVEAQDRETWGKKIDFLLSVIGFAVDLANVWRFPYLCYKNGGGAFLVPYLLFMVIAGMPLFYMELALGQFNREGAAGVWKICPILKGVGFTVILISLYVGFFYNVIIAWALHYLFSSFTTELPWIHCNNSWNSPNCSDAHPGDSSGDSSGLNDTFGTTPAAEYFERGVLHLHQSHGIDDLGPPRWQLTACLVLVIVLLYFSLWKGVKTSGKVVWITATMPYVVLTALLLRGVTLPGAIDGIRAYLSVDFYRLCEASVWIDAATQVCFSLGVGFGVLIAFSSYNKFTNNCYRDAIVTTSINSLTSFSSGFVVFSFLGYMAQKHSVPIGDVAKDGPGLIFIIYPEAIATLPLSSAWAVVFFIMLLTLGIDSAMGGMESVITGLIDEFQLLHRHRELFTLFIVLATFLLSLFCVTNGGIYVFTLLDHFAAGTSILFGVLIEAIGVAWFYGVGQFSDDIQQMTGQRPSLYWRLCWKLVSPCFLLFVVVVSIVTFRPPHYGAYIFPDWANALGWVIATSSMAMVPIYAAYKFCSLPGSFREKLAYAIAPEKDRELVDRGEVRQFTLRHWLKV

Row | Structure (SMILES) | IC50 [1] [nM] | IC50 [2] [nM] | IC50 [3] [nM] | Ki [4] [nM]
1 | CCN(c1ccc(C)cc1N)c1ccccc1CN(C)C | > 100 | > 100 | > 100 | –
2 | Cc1ccc(N(C)c2ccccc2CN(C)C)c(N)c1 | > 100 | > 100 | > 100 | –
3 | Cc1ccc(N(c2ccccc2)c2ccccc2CN(C)C)c(N)c1 | > 100 | > 100 | > 100 | –
4 | Cc1ccc(Sc2ccccc2CN(C)C)c(N)c1 | – | > 100 | > 100 | 1.65
5 | Cc1ccc(C(=O)c2ccccc2CN(C)C)c(N)c1 | > 100 | > 100 | > 100 | –
6 | Cc1ccc(S(=O)(=O)c2ccccc2CN(C)C)c(N)c1 | > 100 | > 100 | > 100 | –
7 | Cc1ccc([S+]([O-])c2ccccc2CN(C)C)c(N)c1 (centres undefined) | – | > 100 | > 100 | 4.15
8 | Cc1ccc(N)c(-c2ccccc2CN(C)C)c1 | > 100 | > 100 | > 100 | –
9 | Cc1ccc(C(O)c2ccccc2CN(C)C)c(N)c1 (centres undefined) | > 100 | > 100 | > 100 | –
10 | Cc1ccc(N(Cc2ccccc2)c2ccccc2CN(C)C)c(N)c1 | > 100 | > 100 | > 100 | –
11 | Cc1ccc(Oc2ccccc2CN(C)C)c(N)c1 | – | > 100 | > 100 | 0.53
12 | COC(c1ccc(C)cc1N)c1ccccc1CN(C)C (centres undefined) | > 100 | > 100 | > 100 | –
13 | Cc1ccc(Nc2ccccc2CN(C)C)c(N)c1 | – | > 100 | > 100 | 10.3
